# Molecular target: Endothelial lipase (EL) (Homo sapiens (Human), UniProt Q9Y5X9)
# Assay: Endothelial lipase (EL) enzymatic assay with fluorescent substrate A10070 in DMPG vesicles
# Type: biochemical
# Conditions: not given
# In short: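 Vesicles prepared: A10070 dried with DMPG, resuspended in HEPES pH 8.0/NaCl/EDTA, sonicated on ice. Enzyme incubated with compound 30 min at 37° C. Reaction started with 1:10 diluted vesicles. Fluorescence (490/530 nm) followed 60 min; slope from 300–900 secs gives rate.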
# Chain of Endothelial lipase (EL) (Q9Y5X9 21-500): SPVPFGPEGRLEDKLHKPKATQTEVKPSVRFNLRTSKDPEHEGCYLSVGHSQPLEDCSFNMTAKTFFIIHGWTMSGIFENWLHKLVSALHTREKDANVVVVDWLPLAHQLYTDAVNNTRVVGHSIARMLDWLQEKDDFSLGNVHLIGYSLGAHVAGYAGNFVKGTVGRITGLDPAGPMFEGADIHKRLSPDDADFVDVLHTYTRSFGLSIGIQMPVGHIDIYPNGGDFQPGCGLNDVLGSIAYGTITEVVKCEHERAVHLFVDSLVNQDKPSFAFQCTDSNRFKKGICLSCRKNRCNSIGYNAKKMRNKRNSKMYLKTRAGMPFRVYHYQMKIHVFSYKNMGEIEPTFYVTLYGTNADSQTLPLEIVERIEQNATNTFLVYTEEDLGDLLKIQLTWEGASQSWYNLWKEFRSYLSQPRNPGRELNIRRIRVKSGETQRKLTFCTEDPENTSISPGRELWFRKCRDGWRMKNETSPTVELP
row,SMILES,IC50 [nM]
1,"Cc1cc(-c2cc3nc(C(C(=O)NCC(=O)NC4CC4)S(=O)(=O)C(C)C)sc3cc2F)cnn1 (centres unmarked) [Example 271, N-[(cyclopropyl-carbamoyl)methyl]-2-[6-fluoro-5-(6-methylpyridazin-4-yl)-1,3-benzothiazol-2-yl]-2-(propane-2-sulfonyl)acetamide]",45
2,"CC(C)S(=O)(=O)C(C(=O)NCC(=O)NC1CC1)c1nc2cc(-c3cccnc3F)c(F)cc2s1 (centres unmarked) [Example 272, N-[(cyclopropyl-carbamoyl)methyl]-2-[6-fluoro-5-(2-fluoropyridin-3-yl)-1,3-benzothiazol-2-yl]-2-(propane-2-sulfonyl)acetamide]",29
3,"CC(C)S(=O)(=O)C(C(=O)NCC(=O)NC1CC1)c1nc2cc(-c3ccc(C#N)cc3)c(F)cc2s1 (centres unmarked) [Example 275, 2-[5-(4-cyanophenyl)-6-fluoro-1,3-benzothiazol-2-yl]-N-[(cyclopropyl-carbamoyl)methyl]-2-(propane-2-sulfonyl)acetamide]",40
4,CC(=O)Nc1cccc(-c2ccc3nc(C(C(=O)NCC(=O)NC4CC4)S(=O)(=O)Cc4cccc(C#N)c4)sc3c2)c1 (centres unmarked) [Example 279],89
5,"CC(C)S(=O)(=O)C(C(=O)NCC(=O)NC1CC1)c1nc2c(F)cc(-c3cnc(-c4ccccc4)nc3)cc2s1 (centres unmarked) [Example 282, N-[(cyclopropyl-carbamoyl)methyl]-2-[4-fluoro-6-(2-phenylpyrimidin-5-yl)-1,3-benzothiazol-2-yl]-2-(propane-2-sulfonyl)acetamide]",22
6,"COCCS(=O)(=O)C(C(=O)NCC(=O)NC1CC1)c1nc2ccc(-c3ccncc3Cl)cc2s1 (centres unmarked) [Example 288, 2-[6-(3-chloropyridin-4-yl)-1,3-benzothiazol-2-yl]-N-[(cyclopropyl-carbamoyl)methyl]-2-(2-methoxyethane-sulfonyl)acetamide]",15
7,"COCCS(=O)(=O)C(C(=O)NCC(=O)NC1CC1)c1nc2ccc(-c3ccncc3)cc2s1 (centres unmarked) [Example 289, N-[(cyclopropyl-carbamoyl)methyl]-2-(2-methoxyethane-sulfonyl)-2-[6-(pyridin-4-yl)-1,3-benzothiazol-2-yl] acetamide]",23
8,"COCCS(=O)(=O)C(C(=O)NCC(=O)NC1CC1)c1nc2ccc(-c3ccnc(C(F)(F)F)c3)cc2s1 (centres unmarked) [Example 290, N-[(cyclopropyl-carbamoyl)methyl]-2-(2-methoxyethane-sulfonyl)-2-{6-[2-(trifluoromethyl)pyridin-4-yl]-1,3-benzothiazol-2-yl} acetamide]",23
9,"COCCS(=O)(=O)C(C(=O)NCC(=O)NC1CC1)c1nc2ccc(-c3ccc(OC(C)C)nc3)cc2s1 (centres unmarked) [Example 291, N-[(cyclopropyl-carbamoyl)methyl]-2-(2-methoxyethane-sulfonyl)-2-{6-[6-(propan-2-yloxy)pyridin-3-yl]-1,3-benzothiazol-2-yl} acetamide]",29
10,"COCCS(=O)(=O)C(C(=O)NCC(=O)NC1CC1)c1nc2ccc(-c3cnnc(C)c3)cc2s1 (centres unmarked) [Example 292, N-[(cyclopropyl-carbamoyl)methyl]-2-(2-methoxyethane-sulfonyl)-2-[6-(6-methylpyridazin-4-yl)-1,3-benzothiazol-2-yl]acetamide]",31
11,"CCOc1ncccc1-c1ccc2nc(C(C(=O)NCC(=O)NC3CC3)S(=O)(=O)CCOC)sc2c1 (centres unmarked) [Example 293, N-[(cyclopropyl-carbamoyl)methyl]-2-[6-(2-ethoxypyridin-3-yl)-1,3-benzothiazol-2-yl]-2-(2-methoxyethane-sulfonyl)acetamide]",33
12,"COCCS(=O)(=O)C(C(=O)NCC(=O)NC1CC1)c1nc2ccc(-c3cnc(F)c(C)c3)cc2s1 (centres unmarked) [Example 294, N-[(cyclopropyl-carbamoyl)methyl]-2-[6-(6-fluoro-5-methylpyridin-3-yl)-1,3-benzothiazol-2-yl]-2-(2-methoxyethane-sulfonyl)acetamide]",36
13,"COCCS(=O)(=O)C(C(=O)NCC(=O)NC1CC1)c1nc2ccc(-c3ccc(C(F)(F)F)nc3)cc2s1 (centres unmarked) [Example 296, N-[(cyclopropyl-carbamoyl)methyl]-2-(2-methoxyethane-sulfonyl)-2-{6-[6-(trifluoromethyl)pyridin-3-yl]-1,3-benzothiazol-2-yl}acetamide]",69
14,"COCCS(=O)(=O)C(C(=O)NCC(=O)NC1CC1)c1nc2ccc(-c3cccnc3Cl)cc2s1 (centres unmarked) [Example 297, 2-[6-(2-chloropyridin-3-yl)-1,3-benzothiazol-2-yl]-N-2-(2-methoxyethane-sulfonyl)acetamide]",85

# The next lines start with the values.
row,IC50 [nM],SMILES
1,11,"CC(C)n1cc(-c2cc3nc(C(C(=O)NCC(=O)NC4CC4)S(=O)(=O)C(C)C)sc3cc2F)ccc1=O (centres unmarked) [Example 268, N-[(cyclopropyl-carbamoyl)methyl]-2-{6-fluoro-5-[6-oxo-1-(propan-2-yl)-1,6-dihydropyridin-3-yl]-1,3-benzothiazol-2-yl}-2-(propane-2-sulfonyl)acetamide]"
2,6,"COC(=O)Nc1ccc(-c2cc3nc(C(C(=O)NCC(=O)NC4CC4)S(=O)(=O)C(C)C)sc3cc2F)cc1 (centres unmarked) [Example 269, methyl N-{4-[2-({[(cyclopropyl-carbamoyl)methyl]carbamoyl} (propane-2-sulfonyl)methyl)-6-fluoro-1,3-benzothiazol-5-yl]phenyl}carbamate]"
3,9,"CC(C)S(=O)(=O)C(C(=O)NCC(=O)NC1CC1)c1nc2cc(-c3ccc4[nH]c(=O)ccc4c3)c(F)cc2s1 (centres unmarked) [Example 270, N-[(cyclopropyl-carbamoyl)methyl]-2-[6-fluoro-5-(2-oxo-1,2-dihydroquinolin-6-yl)-1,3-benzothiazol-2-yl]-2-(propane-2-sulfonyl)acetamide]"
4,9,"CC(C)S(=O)(=O)C(C(=O)NCC(=O)NC1CC1)c1nc2cc(-c3ccc4cnn(C)c4c3)c(F)cc2s1 (centres unmarked) [Example 273, N-[(cyclopropyl-carbamoyl)methyl]-2-[6-fluoro-5-(1-methyl-1H-indazol-6-yl)-1,3-benzothiazol-2-yl]-2-(propane-2-sulfonyl)acetamide]"
5,3,"CC(C)S(=O)(=O)C(C(=O)NCC(=O)NC1CC1)c1nc2cc(-c3cccc4c3cnn4C)c(F)cc2s1 (centres unmarked) [Example 274, N-[(cyclopropyl-carbamoyl)methyl]-2-[6-fluoro-5-(1-methyl-1H-indazol-4-yl)-1,3-benzothiazol-2-yl]-2-(propane-2-sulfonyl)acetamide]"
6,8,"CC(C)S(=O)(=O)C(C(=O)NCC(=O)NC1CC1)c1nc2cc(-c3cn(C)c(=O)c4ccccc34)c(F)cc2s1 (centres unmarked) [Example 276, N-[(cyclopropyl-carbamoyl)methyl]-2-[6-fluoro-5-(2-methyl-1-oxo-1,2-dihydro-isoquinolin-4-yl)-1,3-benzothiazol-2-yl]-2-(propane-2-sulfonyl) acetamide]"
7,13,"CC(C)S(=O)(=O)C(C(=O)NCC(=O)NC1CC1)c1nc2cc(-c3ccc(C(=O)N4CCC4)cc3)c(F)cc2s1 (centres unmarked) [Example 277, 2-{5-[4-(azetidine-1-carbonyl)phenyl]-6-fluoro-1,3-benzothiazol-2-yl}-N-[(cyclopropyl-carbamoyl)methyl]-2-(propane-2-sulfonyl)acetamide]"
8,9,"COC(=O)Nc1cccc(-c2ccc3nc(C(C(=O)NCC(=O)NC4CC4)S(=O)(=O)Cc4cccc(C#N)c4)sc3c2)c1 (centres unmarked) [Example 278, methyl N-(3-{2-[(3-cyanophenyl)methanesulfonyl ({[(cyclopropyl-carbamoyl)methyl]carbamoyl})methyl]-1,3-benzothiazol-6-yl}phenyl)carbamate]"
9,6,"COC(=O)Nc1cccc(-c2cc(F)c3nc(C(C(=O)NCC(=O)NC4CC4)S(=O)(=O)C(C)C)sc3c2)c1 (centres unmarked) [Example 280, methyl N-{3-[2-({[(cyclopropyl-carbamoyl)methyl]carbamoyl} (propane-2-sulfonyl)methyl)-4-fluoro-1,3-benzothiazol-6-yl]phenyl}carbamate]"
10,9,"CC(C)S(=O)(=O)C(C(=O)NCC(=O)NC1CC1)c1nc2c(F)cc(-c3ccc4cnn(C)c4c3)cc2s1 (centres unmarked) [Example 281, N-[(cyclopropyl-carbamoyl)methyl]-2-[4-fluoro-6-(1-methyl-1H-indazol-6-yl)-1,3-benzothiazol-2-yl]-2-(propane-2-sulfonyl)acetamide]"
11,10,"CC(C)S(=O)(=O)C(C(=O)NCC(=O)NC1CC1)c1nc2c(F)cc(-c3ccc(N4CCCC4=O)cc3)cc2s1 (centres unmarked) [Example 283, N-[(cyclopropyl-carbamoyl)methyl]-2-{4-fluoro-6-[4-(2-oxopyrrolidin-1-yl)phenyl]-1,3-benzothiazol-2-yl}-2-(propane-2-sulfonyl)acetamide]"
12,12,"CC(C)S(=O)(=O)C(C(=O)NCC(=O)NC1CC1)c1nc2c(F)cc(-c3ccc(C(=O)N4CCC4)cc3)cc2s1 (centres unmarked) [Example 284, 2-{6-[4-(azetidine-1-carbonyl)phenyl]-4-fluoro-1,3-benzothiazol-2-yl}-N-[(cyclopropyl-carbamoyl)methyl]-2-(propane-2-sulfonyl)acetamide]"
13,12,"Cc1cc2nc(C(C(=O)NCC(=O)NC3CC3)S(=O)(=O)C(C)C)sc2cc1-c1ccc(NC(=O)OCc2ccccc2)cc1 (centres unmarked) [Example 285, benzyl N-{4-[2-({[(cyclopropyl-carbamoyl)methyl]carbamoyl} (propane-2-sulfonyl)methyl)-5-methyl-1,3-benzothiazol-6-yl]phenyl}carbamate]"
14,8,"COCCS(=O)(=O)C(C(=O)NCC(=O)NC1CC1)c1nc2cc(F)c(-c3ccc(-c4noc(=O)[nH]4)cc3)cc2s1 (centres unmarked) [Example 286, N-[(cyclopropyl-carbamoyl)methyl]-2-{5-fluoro-6-[4-(5-oxo-4,5-dihydro-1,2,4-oxadiazol-3-yl)phenyl]-1,3-benzothiazol-2-yl}-2-(2-methoxyethane-sulfonyl)acetamide]"

# Same assay, conditions: EL from conditioned media of HT-1080 cells; 30 min preincubation at 37° C.
row,IC50 [nM],SMILES
1,2.9,"CC(C)OCCNC(=O)CNC(=O)C(c1nc2ccc(-c3ccc4c(c3)CNC4=O)cc2s1)S(C)(=O)=O (centres unmarked) [Example 287, N-(2-((2-Isopropoxyethyl)amino)-2-oxoethyl)-2-(methylsulfonyl)-2-(6-(1-oxoisoindolin-5-yl)benzo[d]thiazol-2-yl)acetamide]"

# Reference: patent US10173991B2, “Sulfone amide linked benzothiazole inhibitors of endothelial lipase” (BRISTOL-MYERS SQUIBB COMPANY, priority 2014, dated 2019)
